Measured values taken from patent US20180255776A1, “HERBICIDAL COMPOSITIONS CONTAINING 4-AMINO-3-CHLORO-6-(4-CHLORO-2-FLUORO-3-METHOXYPHENYL) PYRIDINE-2-CARBOXYLIC ACID OR A DERIVATIVE THEREOF, A TRIAZOLOPYRIMIDINE SULFONAMIDE HERBICIDE OR A DERIVATIVE THEREOF, AND GLYPHOSATE OR A DERIVATIVE THEREOF” (DOW AGROSCIENCES LLC, priority 2015, published 2018).
Counter-ions that a name gives are not always drawn.

Key:
Assay in all cases: Post-emergence field trial, visual % weed control
Assay type in all cases: in vivo
[1] = test system: Commelina benghalensis (hairy wandering Jew, COMBE); settings: 35DAA, Glyphosate DMA salt 960 g ai/ha
Protocol: (§1) Treatments consisted of the methyl ester of 4-amino-3-chloro-6-(4-chloro-2-fluoro-3-methoxyphenyl)pyridine-2-carboxylic acid (Cmpd 1) and diclosulam in combination as GF-3220. […] Glyphosate dimethylammonium salt was applied as various commercial formulations containing 480 grams acid equivalent per liter (g ae/L).
(§2) Field trials were conducted under standard field conditions. Plot sizes varied from 3-4 meters (m) wide by 5-10 m long. Treatments were applied with small plot backpack sprayers, using pressurized carbon dioxide (CO2) as propellant. Pressure varied from 30-50 pounds per square inch (PSI), with spray tips typically of a Flat Fan type applying water diluent at 100-150 liters per hectare (L/ha). Boom sizes varied from 3-4 m in width. Weed sizes varied, but all treatments were applied as post-emergence treatments to weeds from 2 leaf to 2 tiller growth stages varying from 2-15 inches in height. No additional adjuvant was mixed with the treatments applied in the field.
(§3) The weed spectrum included, but was not limited to, Commelina benghalensis (hairy wandering Jew, COMBE), Echinochloa crus-galli (barnyardgrass, ECHCG), Euphorbia heterophylla (wild poinsettia, EPHHL), Conyza bonariensis (hairy fleabane, ERIBO), Conyza canadensis (horseweed, ERICA), Conyza sumatrensis (Guernsey fleabane, ERISU) and Ipomoea grandifolia (Corda-de-viola, IAQGR).
(§4) The values reported are percent (%) control visually rated. The predicted percent (%) weed control was determined using Colby's equation.

[2] = test system: Conyza sumatrensis (Guernsey fleabane, ERISU); settings: Glyphosate DMA salt 1200 g ai/ha
Protocol: as §1, §2, §3, §4

[3] = test system: Conyza canadensis (horseweed, ERICA); settings: Glyphosate DMA salt 1200 g ai/ha
Protocol: as §1, §2, §3, §4

[4] = test system: Euphorbia heterophylla (wild poinsettia, EPHHL); settings: 35DAA, Glyphosate DMA salt 960 g ai/ha
Protocol: as §1, §2, §3, §4

[5] = test system: Conyza bonariensis (hairy fleabane, ERIBO); settings: Glyphosate DMA salt 960 g ai/ha
Protocol: as §1, §2, §3, §4

[6] = test system: Ipomoea grandifolia (Corda-de-viola, IAQGR); settings: Glyphosate DMA salt 960 g ai/ha
Protocol: as §1, §2, §3, §4

## O=C(O)CNCP(=O)(O)O [Glyphosate DMA salt, Glyphosate dimethylammonium salt]
[1]
  Mean % weed control: 62.0%
[2]; 19DAA
  Mean % weed control: 19.0%
[2]; 29DAA
  Mean % weed control: 17.0%
[3]; 46DAA
  Mean % weed control: 25.0%
[3]; 62DAA
  Mean % weed control: 20.0%
[4]
  Mean % weed control: 7.5%
[5]; 9DAA
  Mean % weed control: 10.0%
[5]; 14DAA
  Mean % weed control: 40.0%
[5]; 35DAA
  Mean % weed control: 25.0%
[5]; 67DAA
  Mean % weed control: 20.0%
[6]; 14DAA
  Mean % weed control: 40.0%
[6]; 28DAA
  Mean % weed control: 45.0%
